# Data reported in paper PMC7875478 (Journal of veterinary pharmacology and therapeutics, 2020).
# Like-named read-outs stand apart in the source and are kept apart here.
# Assays:
# [1] = Flunixin meglumine metabolism to 5-OH flunixin in equine liver microsomes; format: in vitro ADME; settings: for Vmax (or Vmax1) / Ki: 5-OH flunixin formation; for Ki: substrate inhibition model
# equine CYP1A1 = settings: 5-OH flunixin formation
# equine CYP3A93 = settings: 5-OH flunixin formation
# equine CYP3A97 [2] = tested on: equine CYP3A97
# CYP2C92 = assay: Incubation of FM with recombinant equine CYP2C92; format: in vitro ADME
# [3] = Phenylbutazone metabolism in equine liver microsomes; format: in vitro ADME; settings: metabolite formation from PBZ
# equine CYP3A97 [4] = assay: Phenylbutazone metabolism to oxyphenbutazone by recombinant equine CYP3A97; format: in vitro ADME; settings: oxyphenbutazone formation from PBZ
# [5] = tested on: equine liver microsomal P450 forming gamma-hydroxy phenylbutazone; assay: Cytochrome P450 inhibition assay with PBZ in equine liver microsomes; format: in vitro ADME; settings: horse, equine liver microsomes, pH 7.4
# recombinant CYP3A97 = assay: Cytochrome P450 inhibition assay with PBZ and recombinant CYP3A97; settings: recombinant CYP3A97, inhibitor 10 μM, PBZ 400 μM
# [6] = Cytochrome P450 inhibition assay with PBZ in equine liver microsomes; format: in vitro ADME; settings: inhibitor 10 μM, PBZ 400 μM
# [7] = read-out: Km (or Km1), 5-OH flunixin formation
compound,measurement,setting,value
"Cc1c(Nc2ncc(O)cc2C(=O)O)cccc1C(F)(F)F [5-OH flunixin, 5-hydroxy-flunixin]",Best fit model,[1]; 5-OH flunixin formation from FM,Substrate Inhibition
same,Vmax (or Vmax1),[1]; horse 1,0.613 pmol/min/pmol P450
same,Vmax (or Vmax1),[1]; horse 2,0.803 pmol/min/pmol P450
same,Km,"[1]; read-out: Km (or Km1), 5-OH flunixin formation, horse 1",22.6 µM
same,Km,"[1]; read-out: Km (or Km1), 5-OH flunixin formation, horse 2",13.1 µM
same,Ki,[1]; horse 1,710 µM
same,Ki,[1]; horse 2,1190 µM
same,Best fit model,equine CYP1A1; CYP1A1,Biphasic
same,Vmax (or Vmax1),"equine CYP1A1; CYP1A1, high-affinity phase",1.39 pmol/min/pmol P450
same,Vmax2,"equine CYP1A1; CYP1A1, low-affinity phase",0.665 pmol/min/pmol P450
same,Km2,"equine CYP1A1; CYP1A1, second phase",546.6 µM
same,Km,"equine CYP1A1; read-out: Km (or Km1), CYP1A1, high-affinity phase",495 µM
same,Best fit model,equine CYP3A93; CYP3A93,Biphasic
same,Vmax (or Vmax1),"equine CYP3A93; CYP3A93, high-affinity phase",0.148 pmol/min/pmol P450
same,Vmax2,"equine CYP3A93; CYP3A93, low-affinity phase",2.32 pmol/min/pmol P450
same,Km2,"equine CYP3A93; CYP3A93, second phase",1539.8 µM
same,Km,"equine CYP3A93; read-out: Km (or Km1), CYP3A93, high-affinity phase",37.6 µM
same,Best fit model,equine CYP3A94; 5-OH flunixin formation,Michaelis-Menten
same,Vmax (or Vmax1),equine CYP3A94; 5-OH flunixin formation,1.39 pmol/min/pmol P450
same,Km,equine CYP3A94; [7],828 µM
same,Best fit model,equine CYP3A95; 5-OH flunixin formation,Michaelis-Menten
same,Vmax (or Vmax1),equine CYP3A95; 5-OH flunixin formation,0.675 pmol/min/pmol P450
same,Km,equine CYP3A95; [7],928 µM
same,Best fit model,equine CYP3A97 [2]; 5-OH flunixin formation,Michaelis-Menten
same,Vmax (or Vmax1),equine CYP3A97 [2]; 5-OH flunixin formation,0.450 pmol/min/pmol P450
same,Km,equine CYP3A97 [2]; [7],4.07 µM
"Cc1c(Nc2ncccc2C(=O)O)cccc1C(F)(F)F [FM, flunixin meglumine]",Generation of metabolites by CYP2C92,CYP2C92,did not generate any measurable metabolites
"CC(O)CCC1C(=O)N(c2ccccc2)N(c2ccccc2)C1=O (stereo not shown) [Gamma-hydroxy phenylbutazone, gamma-hydroxy phenylbutazone]",Best fit model,[3],Michaelis-Menten
same,Km,[3]; horse 1,29.2 µM
same,Vmax,[3]; horse 1,1.56 pmol/min/pmol P450
same,Km,[3]; horse 2,79.3 µM
same,Vmax,[3]; horse 2,0.218 pmol/min/pmol P450
"CCCCC1C(=O)N(c2ccccc2)N(c2ccc(O)cc2)C1=O (stereo not shown) [Oxyphenbutazone, oxyphenbutazone]",Best fit model,[3],Michaelis-Menten
same,Vmax,[3]; horse 1,1.72 pmol/min/pmol P450
same,Vmax,[3]; horse 2,0.279 pmol/min/pmol P450
same,Best fit model,equine CYP3A97 [4],Michaelis-Menten
same,Vmax,equine CYP3A97 [4],2.66 pmol/min/pmol P450
O=c1cc(-c2ccccc2)oc2c1ccc1ccccc12 [alpha-naphthoflavone],"inhibition at 30 min, 10 μM",[5],79%
same,Increased production of oxyphenbutazone compared to control,recombinant CYP3A97,150%
CC(C)(O)c1ccccc1CC[C@@H](SCC1(CC(=O)O)CC1)c1cccc(/C=C/c2ccc3ccc(Cl)cc3n2)c1 [montelukast],Oxyphenbutazone production decreased in microsomal incubations,[6],53%
